Experimental data published in PubChem BioAssay (NCI).
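Test compounds were applied to cells in 96-well plates for 48 hours at 5 doses. TGI marks complete inhibition of growth.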 Peptide text beside a SMILES is read from it. * marks the point of attachment. X34 = O=C(c1ccc(-c2ccc(Cl)cc2Cl)o1)*

What was measured:
Assay in all cases: inhibition of tumour cell growth, NCI panel, 48 h
NCI-H460 lung = test system: NCI-H460 lung
UACC-62 melanoma = test system: UACC-62 melanoma
EKVX NSCLC = test system: EKVX NSCLC
NCI/ADR-RES ovarian = test system: NCI/ADR-RES ovarian
HOP-92 NSCLC = test system: HOP-92 NSCLC
TK-10 renal = test system: TK-10 renal
UACC-257 melanoma = test system: UACC-257 melanoma
MOLT-4 leukemia = test system: MOLT-4 leukemia
HCT-116 colon = test system: HCT-116 colon
HT29 colon = test system: HT29 colon
HS 578T breast = test system: HS 578T breast
A549 NSCLC = test system: A549 NSCLC
NCI-H23 lung = test system: NCI-H23 lung
SF-268 CNS = test system: SF-268 CNS
OVCAR-8 ovarian = test system: OVCAR-8 ovarian
IGROV1 ovarian = test system: IGROV1 ovarian
T-47D breast = test system: T-47D breast
LOX IMVI melanoma = test system: LOX IMVI melanoma
SR leukemia = test system: SR leukemia

Structure (SMILES)	TGI (NCI-H460 lung) [µM]	TGI (UACC-62 melanoma) [µM]	TGI (EKVX NSCLC) [µM]	TGI (NCI/ADR-RES ovarian) [µM]	TGI (HOP-92 NSCLC) [µM]	TGI (TK-10 renal) [µM]	TGI (UACC-257 melanoma) [µM]	TGI (MOLT-4 leukemia) [µM]	TGI (HCT-116 colon) [µM]	TGI (HT29 colon) [µM]	TGI (HS 578T breast) [µM]	TGI (A549 NSCLC) [µM]	TGI (NCI-H23 lung) [µM]	TGI (SF-268 CNS) [µM]	TGI (OVCAR-8 ovarian) [µM]	TGI (IGROV1 ovarian) [µM]	TGI (T-47D breast) [µM]	TGI (LOX IMVI melanoma) [µM]	TGI (SR leukemia) [µM]
CN(CCNC(=O)c1nn(-c2ccc(Cl)cc2Cl)c2c1Cc1ccccc1-2)CCNC(=O)c1nn(-c2ccc(Cl)cc2Cl)c2c1Cc1ccccc1-2	4.01	3.48	> 100	14.9	4.88	24.6	4.72	6.81	4.45	5.55	32.5	28.8	30.2	> 100	4.44	> 100	> 30.2	–	–
COn1oc(=O)c2ccccc21	> 100	> 100	> 100	> 100	> 100	> 100	> 100	> 100	> 100	> 100	> 100	> 100	> 100	> 100	> 100	> 100	–	> 100	–
CN/N=C(\C(=O)Nc1ccc(C(F)(F)F)cc1[N+](=O)[O-])C(c1cnc2ccc([N+](=O)[O-])cc2n1)[N+](=O)[O-] (stereo unspecified)	> 100	–	65.9	–	> 100	–	> 100	> 100	> 100	> 100	–	> 100	> 100	> 100	> 100	> 100	–	> 100	> 100
O=C1CCCCCCCCCCC1CN1CCOCC1 (stereo unspecified)	–	> 100	> 100	–	> 100	> 100	> 100	> 100	> 100	–	> 100	> 100	> 100	> 100	> 100	> 100	> 100	–	> 100
NNC(=O)CC(=O)Nc1ccc(S(=O)(=O)c2ccc(NC(=O)CC(=O)NN)cc2)cc1	> 100	> 100	> 100	> 100	> 100	> 100	> 100	> 100	> 100	> 100	> 100	> 100	> 100	> 100	> 100	> 100	> 100	–	–
CC[C@]1(Cc2ccc(OC)c(OC)c2)C2CC(C(=O)OC)ON2O[C@H](OCc2ccccc2)[C@@H]1OC(C)=O (stereo partly specified)	> 100	> 100	> 100	> 100	> 100	> 100	> 100	> 100	> 100	> 100	–	> 100	> 100	–	> 100	> 100	> 100	> 100	> 100
Cc1ccc2nc(CN(CCO)CCO)cc(=O)n2c1	> 100	> 100	> 100	> 100	> 100	> 100	> 100	> 100	> 100	> 100	> 100	> 100	> 100	> 100	> 100	> 100	–	> 100	> 100
Cc1cc(C#N)c(Nc2ccc(F)cc2[N+](=O)[O-])s1	> 100	> 100	> 100	> 100	94.6	–	> 100	> 100	> 100	–	–	> 100	> 100	> 100	> 100	–	> 100	–	> 100
O=C1NC(=O)C(C(c2ccc([N+](=O)[O-])cc2)C2C(=O)NC(=O)NC2=O)C(=O)N1	> 100	> 100	–	> 100	> 100	> 100	> 100	> 100	> 100	> 100	> 100	> 100	> 100	> 100	> 100	> 100	> 100	> 100	–
COC(=O)C(CC(C)C)NC(=O)C(Cc1ccccc1)NC(=O)C1CCCN1C(=O)C(CO)NC(=O)c1ccc(-c2ccc(Cl)cc2Cl)o1 (stereo unspecified) (X34-SPFL-OMe; configuration not given here)	38.9	> 100	–	92.8	63.9	67.5	57.8	80	92.1	40.7	> 100	91.2	97.6	> 100	> 100	–	> 100	47.9	–
CCOC(=O)/C(=C\c1cn(C(C)=O)c2ccccc12)P(C)(=O)OCC (stereo unspecified)	–	> 100	> 100	> 100	66.8	–	–	> 100	> 100	> 100	–	> 100	–	50.5	> 100	> 100	> 100	–	> 100
CNC(=O)N1CN(c2ccccc2)C2(CCN(Cc3ccccc3)CC2)C1=O	–	> 100	> 100	51.3	–	> 100	> 100	46.8	> 100	> 100	–	> 100	> 100	> 100	> 100	> 100	11	> 100	52.3
[C-]#[N+]C(=C\c1ccc(O)cc1)/C(=C/c1ccc(O)cc1)[N+]#[C-]	> 28.6	3.7	> 100	> 24.5	> 100	> 100	6.98	7.67	15.8	> 73.8	–	> 69.9	5.93	> 100	> 20.5	> 23.6	12.1	5.16	5.86
Cc1oc2nc(N(C)C)nc(NN)c2c1C	> 100	> 100	> 100	> 100	> 100	> 100	> 100	> 100	> 100	> 100	> 100	> 100	> 100	> 100	> 100	> 100	> 100	–	–
